In ChEMBL document CHEMBL1240489, “Discovery of N-{1-[3-(3-oxo-2,3-dihydrobenzo[1,4]oxazin-4-yl)propyl]piperidin-4-yl}-2-phenylacetamide (Lu AE51090): an allosteric muscarinic M1 receptor agonist with unprecedented selectivity and procognitive potential” (J Med Chem, 2010):
Activity calls are given as the source filed them.

Columns and labels:
[1] = biological target: T1, Muscarinic acetylcholine receptor M1 (Homo sapiens) (UniProt P11229); experiment: Agonist activity at human muscarinic M1 receptor expressed in CHO-K1 cells assessed as increase of acetylcholine-induced calcium flux by FLIPR assay in presence of atropine; format: functional, cell-based
T1 sequence (whole entry): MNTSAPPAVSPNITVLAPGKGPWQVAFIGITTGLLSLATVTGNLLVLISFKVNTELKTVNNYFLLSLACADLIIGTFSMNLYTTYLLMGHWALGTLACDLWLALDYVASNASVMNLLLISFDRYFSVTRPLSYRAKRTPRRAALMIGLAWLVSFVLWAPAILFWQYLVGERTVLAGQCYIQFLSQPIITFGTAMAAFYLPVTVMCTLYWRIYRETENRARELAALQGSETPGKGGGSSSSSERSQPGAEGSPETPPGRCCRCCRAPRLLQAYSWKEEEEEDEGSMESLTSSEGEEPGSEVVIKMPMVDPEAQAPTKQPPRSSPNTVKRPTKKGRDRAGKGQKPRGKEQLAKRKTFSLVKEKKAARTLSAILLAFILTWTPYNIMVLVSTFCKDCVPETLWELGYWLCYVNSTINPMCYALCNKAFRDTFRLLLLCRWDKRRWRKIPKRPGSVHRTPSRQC

[2] = biological target: T2, Muscarinic acetylcholine receptor M4 (Homo sapiens) (UniProt P08173); experiment: Agonist activity at human muscarinic M4 receptor expressed in BHK-21 cells coexpressing Galpha16 subunit assessed as increase of acetylcholine-induced calcium flux at 10 uM by FLIPR assay relative to acetylcholine; format: functional, cell-based
T2 sequence (whole entry): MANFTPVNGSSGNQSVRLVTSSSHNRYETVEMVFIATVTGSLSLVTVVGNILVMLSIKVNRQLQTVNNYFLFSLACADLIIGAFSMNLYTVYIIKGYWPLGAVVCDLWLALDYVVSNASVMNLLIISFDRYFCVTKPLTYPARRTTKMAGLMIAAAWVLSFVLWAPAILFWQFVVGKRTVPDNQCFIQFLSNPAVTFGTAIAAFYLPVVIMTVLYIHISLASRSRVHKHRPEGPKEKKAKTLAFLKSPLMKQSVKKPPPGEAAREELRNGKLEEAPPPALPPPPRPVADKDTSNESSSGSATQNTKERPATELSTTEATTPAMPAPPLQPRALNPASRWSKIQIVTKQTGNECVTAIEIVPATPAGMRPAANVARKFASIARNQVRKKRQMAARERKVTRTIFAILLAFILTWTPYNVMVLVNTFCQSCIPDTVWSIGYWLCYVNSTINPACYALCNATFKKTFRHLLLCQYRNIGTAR

[3] = Terminal half life in rat plasma at 1 mg/kg, iv and 2 mg/kg, po; format: ADME, organism-based
Mus musculus = experiment: Reversal of 60 seconds delay-induced memory decay in C57Bl/6J mouse assessed as positive alteration at 10 to 20 mg/kg, sc for 1 week by Y-maze test; format: functional, organism-based
[4] = biological target: Beta-1 adrenergic receptor (Homo sapiens, UniProt P08588); experiment: Binding affinity to human adrenergic beta-1 receptor by radioligand displacement assay
[5] = biological target: 5-hydroxytryptamine receptor 2B (Homo sapiens, UniProt P41595); experiment: Binding affinity to human 5-HT2B agonist site receptor by radioligand displacement assay
[6] = biological target: T3, Muscarinic acetylcholine receptor M4 (Homo sapiens, UniProt P08173); experiment: Binding affinity to human muscarinic M4 receptor by radioligand displacement assay
T3 sequence (P08173 whole entry): T2 sequence (whole entry)

[7] = biological target: Alpha-2B adrenergic receptor (Homo sapiens, UniProt P18089); experiment: Binding affinity to adrenergic alpha2B receptor by radioligand displacement assay
[8] = Binding affinity to L-type Ca2+ channel verapamil site by radioligand displacement assay
[9] = biological target: T4, Muscarinic acetylcholine receptor M5 (Homo sapiens, UniProt P08912); experiment: Binding affinity to human muscarinic M5 receptor by radioligand displacement assay
T4 sequence (P08912 whole entry): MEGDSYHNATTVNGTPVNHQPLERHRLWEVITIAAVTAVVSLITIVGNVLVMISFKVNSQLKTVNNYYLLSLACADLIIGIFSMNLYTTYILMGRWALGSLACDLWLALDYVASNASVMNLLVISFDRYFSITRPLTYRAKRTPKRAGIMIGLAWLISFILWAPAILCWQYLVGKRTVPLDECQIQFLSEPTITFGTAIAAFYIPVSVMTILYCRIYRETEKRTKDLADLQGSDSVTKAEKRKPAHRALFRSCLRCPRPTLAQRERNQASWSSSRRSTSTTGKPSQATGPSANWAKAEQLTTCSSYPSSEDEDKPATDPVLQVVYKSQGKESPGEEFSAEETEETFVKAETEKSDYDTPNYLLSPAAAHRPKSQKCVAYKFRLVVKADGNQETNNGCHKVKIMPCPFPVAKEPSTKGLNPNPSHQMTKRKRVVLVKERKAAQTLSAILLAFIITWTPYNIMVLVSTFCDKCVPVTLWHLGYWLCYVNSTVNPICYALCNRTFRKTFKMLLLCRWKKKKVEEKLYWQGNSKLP

[10] = biological target: High affinity choline transporter 1 (Homo sapiens, UniProt Q9GZV3); experiment: Binding affinity to human choline transporter (CHT1) by radioligand displacement assay
Nischarin = Nischarin (Homo sapiens, UniProt Q9Y2I1); experiment: Binding affinity to I1 receptor by radioligand displacement assay
[11] = biological target: 5-hydroxytryptamine receptor 1B (Homo sapiens, UniProt P28222); experiment: Binding affinity to 5-HT1B receptor by radioligand displacement assay
Substance-K receptor = Substance-K receptor (Homo sapiens, UniProt P21452); experiment: Binding affinity to human NK2 receptor by radioligand displacement assay
[12] = biological target: Tyrosine-protein kinase Lyn (Homo sapiens, UniProt P07948); experiment: Binding affinity to Lyn by enzyme assay
[13] = Binding affinity to PDE5 by enzyme assay

Tyrosine-protein kinase Lyn, sequence (P07948 whole entry): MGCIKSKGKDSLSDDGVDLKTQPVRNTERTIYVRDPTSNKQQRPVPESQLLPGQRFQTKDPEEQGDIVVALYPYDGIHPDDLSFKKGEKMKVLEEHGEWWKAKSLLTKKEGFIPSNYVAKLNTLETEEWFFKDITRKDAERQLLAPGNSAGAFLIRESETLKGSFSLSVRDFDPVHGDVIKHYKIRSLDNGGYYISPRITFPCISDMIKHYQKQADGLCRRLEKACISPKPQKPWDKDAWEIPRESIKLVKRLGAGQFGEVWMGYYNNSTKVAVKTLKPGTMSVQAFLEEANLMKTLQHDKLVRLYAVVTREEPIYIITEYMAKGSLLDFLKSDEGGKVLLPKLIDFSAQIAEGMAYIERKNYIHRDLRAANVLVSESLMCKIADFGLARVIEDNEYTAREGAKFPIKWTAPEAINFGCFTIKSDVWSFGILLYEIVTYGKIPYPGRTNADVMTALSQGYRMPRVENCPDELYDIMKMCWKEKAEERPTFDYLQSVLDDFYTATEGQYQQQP
5-hydroxytryptamine receptor 1B, sequence (P28222 whole entry): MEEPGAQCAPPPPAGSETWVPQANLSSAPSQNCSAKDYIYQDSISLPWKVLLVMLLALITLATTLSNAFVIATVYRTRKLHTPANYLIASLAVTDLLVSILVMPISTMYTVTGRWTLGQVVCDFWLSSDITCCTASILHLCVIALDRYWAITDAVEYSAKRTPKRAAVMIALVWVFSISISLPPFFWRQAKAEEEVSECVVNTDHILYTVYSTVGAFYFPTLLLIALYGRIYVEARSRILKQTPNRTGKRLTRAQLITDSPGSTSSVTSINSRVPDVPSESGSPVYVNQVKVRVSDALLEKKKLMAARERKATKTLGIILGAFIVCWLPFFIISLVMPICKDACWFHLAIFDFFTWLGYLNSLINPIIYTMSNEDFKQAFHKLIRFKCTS
Beta-1 adrenergic receptor, sequence (P08588 whole entry): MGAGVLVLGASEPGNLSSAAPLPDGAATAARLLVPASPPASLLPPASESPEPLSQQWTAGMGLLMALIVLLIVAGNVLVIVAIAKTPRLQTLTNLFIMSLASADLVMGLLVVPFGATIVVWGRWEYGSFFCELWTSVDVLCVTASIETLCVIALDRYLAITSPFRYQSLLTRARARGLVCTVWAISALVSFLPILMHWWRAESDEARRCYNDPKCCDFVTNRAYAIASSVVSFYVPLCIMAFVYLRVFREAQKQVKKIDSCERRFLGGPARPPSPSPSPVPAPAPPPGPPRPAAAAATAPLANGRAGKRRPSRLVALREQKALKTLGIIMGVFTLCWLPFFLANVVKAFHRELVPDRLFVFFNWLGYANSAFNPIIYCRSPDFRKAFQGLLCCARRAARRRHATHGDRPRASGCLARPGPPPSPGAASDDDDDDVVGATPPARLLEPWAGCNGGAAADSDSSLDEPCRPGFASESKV
5-hydroxytryptamine receptor 2B, sequence (P41595 whole entry): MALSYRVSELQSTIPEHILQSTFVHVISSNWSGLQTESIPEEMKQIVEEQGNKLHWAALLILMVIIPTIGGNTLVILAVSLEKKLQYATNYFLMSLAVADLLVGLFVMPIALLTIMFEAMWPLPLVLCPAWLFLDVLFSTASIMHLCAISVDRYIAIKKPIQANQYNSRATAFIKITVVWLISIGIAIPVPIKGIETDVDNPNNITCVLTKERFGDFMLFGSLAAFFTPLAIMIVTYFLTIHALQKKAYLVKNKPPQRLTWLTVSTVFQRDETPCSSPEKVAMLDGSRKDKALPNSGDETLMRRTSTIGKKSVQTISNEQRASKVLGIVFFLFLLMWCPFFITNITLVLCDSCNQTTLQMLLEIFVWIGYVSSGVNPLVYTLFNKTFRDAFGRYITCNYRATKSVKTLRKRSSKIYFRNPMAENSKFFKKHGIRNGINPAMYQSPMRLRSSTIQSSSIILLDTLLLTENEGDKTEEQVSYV
Nischarin, sequence (Q9Y2I1 whole entry): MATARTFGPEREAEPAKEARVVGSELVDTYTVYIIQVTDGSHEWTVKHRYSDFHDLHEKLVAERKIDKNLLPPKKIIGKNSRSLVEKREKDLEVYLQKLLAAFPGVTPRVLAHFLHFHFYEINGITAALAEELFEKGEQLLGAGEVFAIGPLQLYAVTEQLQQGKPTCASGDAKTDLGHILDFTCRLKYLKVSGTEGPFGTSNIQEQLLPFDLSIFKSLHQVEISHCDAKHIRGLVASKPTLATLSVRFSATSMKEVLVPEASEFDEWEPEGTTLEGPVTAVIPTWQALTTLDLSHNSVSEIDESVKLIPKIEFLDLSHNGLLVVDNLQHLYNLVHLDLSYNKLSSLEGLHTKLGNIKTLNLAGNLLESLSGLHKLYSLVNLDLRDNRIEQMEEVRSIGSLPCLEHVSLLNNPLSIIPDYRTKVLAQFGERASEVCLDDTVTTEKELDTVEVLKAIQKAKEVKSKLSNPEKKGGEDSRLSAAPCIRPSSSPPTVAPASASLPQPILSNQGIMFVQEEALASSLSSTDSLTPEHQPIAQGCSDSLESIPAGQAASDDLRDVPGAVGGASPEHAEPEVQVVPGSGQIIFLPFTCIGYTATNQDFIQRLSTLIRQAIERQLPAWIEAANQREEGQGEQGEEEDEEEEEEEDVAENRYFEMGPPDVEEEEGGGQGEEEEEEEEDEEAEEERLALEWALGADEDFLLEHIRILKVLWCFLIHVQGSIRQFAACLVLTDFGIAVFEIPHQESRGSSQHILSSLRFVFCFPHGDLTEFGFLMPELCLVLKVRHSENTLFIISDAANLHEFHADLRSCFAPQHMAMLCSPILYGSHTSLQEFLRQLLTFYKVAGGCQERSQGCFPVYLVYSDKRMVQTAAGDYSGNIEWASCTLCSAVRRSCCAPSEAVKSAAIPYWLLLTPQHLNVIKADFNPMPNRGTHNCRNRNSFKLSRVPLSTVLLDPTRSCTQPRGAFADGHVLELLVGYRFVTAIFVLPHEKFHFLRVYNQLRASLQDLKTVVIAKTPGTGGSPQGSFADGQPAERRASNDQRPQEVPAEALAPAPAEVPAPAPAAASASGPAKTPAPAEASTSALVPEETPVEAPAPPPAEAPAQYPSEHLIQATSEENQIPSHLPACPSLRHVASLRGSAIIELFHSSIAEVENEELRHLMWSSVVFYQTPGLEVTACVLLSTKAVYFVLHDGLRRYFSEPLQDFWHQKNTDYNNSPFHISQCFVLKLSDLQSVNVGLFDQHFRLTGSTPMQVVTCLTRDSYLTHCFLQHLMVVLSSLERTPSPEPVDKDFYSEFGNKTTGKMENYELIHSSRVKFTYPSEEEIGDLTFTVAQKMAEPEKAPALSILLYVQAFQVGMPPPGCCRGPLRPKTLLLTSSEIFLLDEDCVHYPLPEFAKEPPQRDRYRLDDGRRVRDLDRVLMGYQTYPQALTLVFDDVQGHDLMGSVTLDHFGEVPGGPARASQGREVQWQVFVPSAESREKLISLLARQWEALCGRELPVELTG
High affinity choline transporter 1, sequence (Q9GZV3 whole entry): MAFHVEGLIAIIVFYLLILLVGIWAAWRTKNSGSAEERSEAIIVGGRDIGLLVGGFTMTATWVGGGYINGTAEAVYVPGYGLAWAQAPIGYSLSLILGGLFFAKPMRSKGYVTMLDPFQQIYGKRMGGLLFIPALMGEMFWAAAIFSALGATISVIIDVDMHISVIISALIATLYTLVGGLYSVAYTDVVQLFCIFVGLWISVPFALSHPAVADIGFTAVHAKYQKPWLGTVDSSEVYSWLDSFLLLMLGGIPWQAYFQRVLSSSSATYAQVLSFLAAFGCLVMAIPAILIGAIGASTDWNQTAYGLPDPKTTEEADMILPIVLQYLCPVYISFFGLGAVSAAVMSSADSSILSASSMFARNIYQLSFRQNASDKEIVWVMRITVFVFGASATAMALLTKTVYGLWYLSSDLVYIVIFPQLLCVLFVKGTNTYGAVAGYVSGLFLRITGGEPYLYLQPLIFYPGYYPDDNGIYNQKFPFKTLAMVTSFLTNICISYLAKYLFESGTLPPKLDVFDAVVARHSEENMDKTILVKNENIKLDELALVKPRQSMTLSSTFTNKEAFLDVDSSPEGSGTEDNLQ
Substance-K receptor, sequence (P21452 whole entry): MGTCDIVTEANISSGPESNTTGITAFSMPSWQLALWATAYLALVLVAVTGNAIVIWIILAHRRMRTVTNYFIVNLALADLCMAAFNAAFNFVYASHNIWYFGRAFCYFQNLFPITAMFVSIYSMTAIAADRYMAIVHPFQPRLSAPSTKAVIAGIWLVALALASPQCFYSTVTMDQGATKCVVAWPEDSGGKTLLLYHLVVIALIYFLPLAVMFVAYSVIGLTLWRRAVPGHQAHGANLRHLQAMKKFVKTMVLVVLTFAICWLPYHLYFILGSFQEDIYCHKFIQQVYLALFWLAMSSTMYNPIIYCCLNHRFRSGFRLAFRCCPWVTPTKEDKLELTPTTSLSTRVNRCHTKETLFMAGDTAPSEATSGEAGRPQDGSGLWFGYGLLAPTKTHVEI
Alpha-2B adrenergic receptor, sequence (P18089 whole entry): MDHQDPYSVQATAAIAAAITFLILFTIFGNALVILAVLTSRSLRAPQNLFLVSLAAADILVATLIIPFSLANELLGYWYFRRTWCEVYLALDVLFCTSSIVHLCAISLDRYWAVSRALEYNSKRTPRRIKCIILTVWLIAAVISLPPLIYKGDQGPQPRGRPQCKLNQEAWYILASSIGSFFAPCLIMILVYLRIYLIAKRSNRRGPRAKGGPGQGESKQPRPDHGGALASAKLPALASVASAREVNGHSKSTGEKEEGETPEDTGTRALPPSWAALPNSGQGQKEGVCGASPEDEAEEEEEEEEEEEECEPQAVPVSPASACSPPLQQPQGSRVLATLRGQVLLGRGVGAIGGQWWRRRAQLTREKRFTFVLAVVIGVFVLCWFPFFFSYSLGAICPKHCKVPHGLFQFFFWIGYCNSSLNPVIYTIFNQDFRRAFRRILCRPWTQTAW

O=C(Cc1ccccc1)NC1CCN(CCCN2C(=O)COc3ccccc32)CC1
6%: Emax [2]
active: Activity (Mus musculus)
≥ 1000 nM: Ki [4] | Ki [5] | Ki [6] | Ki [7] | Ki [8] | Ki [9] | Ki [10] | Ki (Nischarin) | Ki [11] | Ki (Substance-K receptor) | Ki [12] | Ki [13]
inactive: Activity [1]
48 min: half-life [3]
